Experiment [1] concerns human SKOV3 ovarian cancer tumors. Description: SKOV3 ovarian cancer xenograft, SorC27 versus saline and CAT (Example 14). The experiment is classed as in vivo, NOD/SCID mice. On the procedure:
Tumor volumes (V) are calculated by caliper measurement using standard measurements of the width (W), length (L) and thickness (T) of tumors. Animals are randomized into treatment groups so that the median tumor volumes of each group were similar at the start of dosing. % T/C values, as a measure of efficacy, are determined where C refers to volume of control or untreated tumor, and T refers to volume of treated tumor.
SKOV3 cells were obtained from ATCC, cultured and expanded to suitable numbers to establish xenografts in mice and then formulated into gel pellets and grafted under the renal capsule of surrogate NOD/SCID mice in order to establish the tumors. Tumors are then permitted to develop in vivo until the majority reach 100-200 mm^3 in tumor volume, which typically requires 1-2 weeks following implantation. Once xenografts are established, they are harvested and cut into multiple uniform pieces. Sixteen to eighteen pieces were implanted subcutaneously into each NOD/SCID mouse for experimentation. After 2 days, the animals are treated with either the test peptides or CAT or combinations.
Mice implanted with SKOV3 cells as detailed above received saline (control), SorC27 (400 mg/kg), by i.p. injection every day for 12 days or CAT injections one every week. The tumor volume and body weights were measured every day. As well, general health of the animals was monitored every day. The results shown in FIG. 12 are presented in terms of tumor load normalized to body weight. […] By Day 12 there was no statistically significant difference between CAT and SorC27 at this dose.

In experiment [2] the test system is T47D breast cancer xenografts. Description: T-47D breast cancer xenograft, SorC13 with Paclitaxel (Example 27). Format: in vivo, NOD/SCID mice. The procedure:
Tumor volumes (V) were calculated by caliper measurement using standard measurements of the width (W), length (L) and thickness (T) of tumors. Animals were randomized into treatment groups so that the median tumor volumes of each group were similar at the start of dosing. Percentage ΔT/ΔC values, as a measure of efficacy, were determined where ΔC refers to change in volume of control or untreated tumor, and ΔT refers to change in volume of treated tumor.
Animals were intraperitoneally (i.p.) injected with the vehicular control, or the low, medium or high doses of CAT or CAT and SorC13. Mice received low medium or high doses of CAT or CAT and SorC13 by i.p. injection every day for 12 days or CAT injections as set out in Table 10. Paclitaxel was injected first, followed by carboplatin 30 minutes later and then SorC13. The tumor volume and body weights were measured every day. As well, general health of the animals was monitored every day.
The human […] breast cancer cell line T-47D (ATCC #HTB-133), was cultured in growth media prepared with ATCC complete growth medium. The base medium for the T-47D cell line is ATCC-formulated RPMI-1640 Medium. The complete growth medium is supplemented with 0.2 Units/ml bovine insulin and fetal bovine serum to a final concentration of 10% (v/v). Cells were cultured at 37° C. in an atmosphere of 95% air and 5% carbon dioxide with sub-culturing done according to ATCC guidelines.
The cell preparation, formulation, implantation, measurement and treatment procedures were otherwise as described in Example 26 and Table 10 but with Paclitaxel at low (6 mg/kg), medium (10 mg/kg) and high (16 mg/kg) doses.

Experiment [3] has as its system MCF 7 breast cancer cell line. Briefly: Induction of apoptosis (APO-ONE caspase 3/7) and cell viability (CellTiter Blue). Format: cell-based, human. Details: key: cell viability decreased (+); or not (−). On the procedure: MCF-7, MDA-MB-231, MDA-MB-415, MDA-MB-468 were grown in DMEM modified with 10% (v/v) fetal bovine serum, 2 mM L-glutamine and 50 ug/mL each of penicillin and streptomycin.
The levels of apoptotic induction and cell viability were determined by multiplexing the measurements for single samples. CellTiter Blue and APO-ONE assay systems from Promega allows the determination of cell viability correlated to cell number, and induction of apoptosis. This protocol uses a fluorgenic peptide that contains a peptide recognition-sequence for caspase 3 and caspase 7, […] proteolytic enzymes of the apoptosis cascade. The CellTiter Blue reagent was added to wells in a 96-well plate containing cells under test, immediately after addition of peptide solution or vehicle. About 5000 cells were plated into the wells the day before. At the chosen time (Day 1, Day 2 etc.) the fluorescence was measured at 590 nm (emission) after excitation at 560 nm. The caspase 3/7 activity was measured (485 nm Ex/527 nm Em) in the same wells after adding 120 uL of the Apo-ONE reagent, freeze fracturing at −80° C. for 1 hr, and incubating for 1 hr at room temperature.
For this work, the concentrations of SorC13 and SorC27 used were 0 uM, 1 uM, 10 uM and 100 uM. The experiments extended over a 5 to 7 day period. All measurements were done in quadruplicate with both a blank (no cells) and control (vehicle, no peptide) used to correct the test measurements. The time-response data, and the dose-response data were plotted as means±standard error of the mean. Any statistical comparisons were done with the Student's t-test or by ANOVA analysis over the dose course. The level of statistical significance was considered to be the 95% confidence interval (i.e., p≤0.05).
To benchmark the effect of both C-type peptides to the gold-standard treatment presently used against breast cancer (Paclitaxel), SorC13, SorC27 and Paclitaxel (10 uM) were compared. Both the APO-ONE assay (Promega) and the CellTiter Blue were used on the panel of breast cancer cell lines. […]

The mark [4] stands for this setting: 400 mg/kg i.p. every day for 12 days.

We go through two sequences from patent US10058587B2, “Peptide composition for cancer treatment by inhibiting TRPV6 calcium channel activity” (priority 2008, dated 2018).

Entries after “also recorded” stand apart in the source; their conditions may differ. Where no end group is shown, it is not given here.

EGKLSSNDTEGGLCKEFLHPSKVDLPR [SorC27]: in experiment [1] (setting [4]), the “% T/C ratio (mean tumour volume of treated/mean tumour volume of control)” value amounted to 39.9% and the “decrease in tumour growth” value came out at 60.1%. For the same sequence, the “tumor volume normalized to body weight versus control saline” value in experiment [1] (over 12 days, SorC27 400 mg/kg i.p. daily, CAT once every week, 400 mg/kg) is given as “greatly reduced tumor volume; also recorded: reduced the tumor volume significantly”.

With KEFLHPSKVDLPR [SorC13, KEFLHPSKVDLPR], the “% ΔT/ΔC (tumor volume normalized to control)” value in experiment [2] (Day 6, SorC13 300 mg/kg) was 66.0%; in experiment [2] (Day 12, SorC13 300 mg/kg), 1.0%; in experiment [2] (Day 18 (rest period), SorC13 300 mg/kg), 54.5%; in experiment [2] (Day 24 (rest period), SorC13 300 mg/kg), 48.7%. Besides, the Mean tumour volume in experiment [2] (after 12-day rest post-treatment, SorC13 300 mg/kg) was 55.76 mm^3. Moreover, the Mean tumor volume in experiment [2] (day 12 of treatment, SorC13 300 mg/kg i.p. daily) is reported as 43.61 mm^3. Further, the “Decline in cell viability” value in experiment [3] (SorC13 1 uM) is reported as “−”; in experiment [3] (SorC13 10 uM), “−”; in experiment [3] (SorC13 100 uM), “+”.
